From EP0970046B1, “N-HYDROXY-2-(ALKYL, ARYL, OR HETEROARYL SULFANYL, SULFINYL OR SULFONYL)-3-SUBSTITUTED ALKYL, ARYL OR HETEROARYLAMIDES AS MATRIX METALLOPROTEINASE INHIBITORS” (Wyeth Holdings Corporation, priority 1997, dated 1998) come the findings set out here.

Read-outs that look alike come from different tables or passages of the source.

What all share (type): biochemical
The target in experiment [1] is T1, MMP 9 (Homo sapiens, UniProt P14780).
T1 construct: from tissue; host or cells: human neutrophils
In words: In Vitro Gelatinase Assay. Conditions: human neutrophil gelatinase B; for IC50: read-out: MMP 9 IC 50; for inhibition at 1 µM: read-out: MMP 9 % inhibition at 1 micromolar. In a few lines:
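Human MMP-9 cleaves thiopeptide Ac-Pro-Leu-Gly(2-mercapto-4-methyl-pentanoyl)-Leu-Gly-OEt, with the released thiol reacting with DTNB. Substrate and DTNB were diluted together to 1 mM in 50 mM HEPES pH 7.5, 5 mM CaCl2. Rate came from the OD405 slope (r^2 >0.85), compared with control by Dunnett's test.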

Experiment [2] deals with T2, TACE (Homo sapiens, UniProt P78536).
T2 construct: purchased Immunex
Briefly: Procedure for Measuring TACE Inhibition. Conditions: for inhibition at 1 µM: read-out: TACE % inhibition at 1 micromolar; for IC50: read-out: TACE IC 50. A digest of the protocol:
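Single-concentration screen: test compound at 1 µM final, 10-min room-temperature preincubation with 1 µg/mL protease in Tris pH 7.4 buffer containing glycerol. Initial rate from linear fluorescence increase (340/420 nm) over 10 min after adding 100 µM peptidyl substrate; significance versus control rate by Dunnett's test.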

In experiment [3] the target is T3, MMP 1 (Homo sapiens, UniProt P03956).
T3 construct: human recombinant fibroblast collagenase (truncated, mw= 18,828, WAR, Radnor)
T3 sequence (P03956 100-269 limits assumed): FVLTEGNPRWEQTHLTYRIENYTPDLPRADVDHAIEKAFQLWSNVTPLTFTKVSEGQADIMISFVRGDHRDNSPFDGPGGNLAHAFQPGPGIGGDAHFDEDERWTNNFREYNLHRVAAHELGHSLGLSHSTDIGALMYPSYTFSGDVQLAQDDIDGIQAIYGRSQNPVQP
Briefly: In Vitro Collagenase Assay. Conditions: human recombinant fibroblast collagenase; for IC50: read-out: MMP 1 IC 50; for inhibition at 1 µM: read-out: MMP 1 % inhibition at 1 micromolar. A digest of the protocol:
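Collagenase (5 nM final) cleaves the quenched fluorogenic peptide Dnp-Pro-Cha-Gly-Cys(Me)-His-Ala-Lys(NMa)-NH2 (10 µM final) in HCBC buffer. Solvent is below 1.0%, and the reaction is started with substrate. Rate is taken from the fluorescence slope (r^2 >0.85), and drug-treated rates are compared with control by Dunnett's test.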

Experiment [4] addresses MMP 13 (Homo sapiens, UniProt P45452). Briefly: MMP 13 inhibition (IC50 / manual assay; method not described). Conditions: for inhibition at 1 µM: read-out: MMP 13 % inhibition at 1 micromolar.

T1 sequence (P14780 94-707): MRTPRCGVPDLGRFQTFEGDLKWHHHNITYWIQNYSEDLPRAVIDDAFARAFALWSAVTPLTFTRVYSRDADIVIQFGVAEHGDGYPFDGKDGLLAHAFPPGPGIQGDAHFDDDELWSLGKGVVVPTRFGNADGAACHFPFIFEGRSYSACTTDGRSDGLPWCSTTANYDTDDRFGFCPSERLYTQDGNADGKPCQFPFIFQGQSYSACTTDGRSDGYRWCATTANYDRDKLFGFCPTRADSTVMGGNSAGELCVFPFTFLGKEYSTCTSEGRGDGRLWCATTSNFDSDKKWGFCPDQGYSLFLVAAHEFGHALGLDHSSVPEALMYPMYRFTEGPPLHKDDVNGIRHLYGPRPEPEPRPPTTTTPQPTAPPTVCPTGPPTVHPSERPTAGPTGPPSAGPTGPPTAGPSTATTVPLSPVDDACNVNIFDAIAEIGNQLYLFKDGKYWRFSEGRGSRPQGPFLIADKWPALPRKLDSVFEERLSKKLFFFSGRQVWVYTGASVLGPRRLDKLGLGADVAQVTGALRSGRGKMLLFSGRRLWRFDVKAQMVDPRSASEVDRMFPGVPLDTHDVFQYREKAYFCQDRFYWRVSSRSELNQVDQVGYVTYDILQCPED
T2 sequence (P78536 215-824): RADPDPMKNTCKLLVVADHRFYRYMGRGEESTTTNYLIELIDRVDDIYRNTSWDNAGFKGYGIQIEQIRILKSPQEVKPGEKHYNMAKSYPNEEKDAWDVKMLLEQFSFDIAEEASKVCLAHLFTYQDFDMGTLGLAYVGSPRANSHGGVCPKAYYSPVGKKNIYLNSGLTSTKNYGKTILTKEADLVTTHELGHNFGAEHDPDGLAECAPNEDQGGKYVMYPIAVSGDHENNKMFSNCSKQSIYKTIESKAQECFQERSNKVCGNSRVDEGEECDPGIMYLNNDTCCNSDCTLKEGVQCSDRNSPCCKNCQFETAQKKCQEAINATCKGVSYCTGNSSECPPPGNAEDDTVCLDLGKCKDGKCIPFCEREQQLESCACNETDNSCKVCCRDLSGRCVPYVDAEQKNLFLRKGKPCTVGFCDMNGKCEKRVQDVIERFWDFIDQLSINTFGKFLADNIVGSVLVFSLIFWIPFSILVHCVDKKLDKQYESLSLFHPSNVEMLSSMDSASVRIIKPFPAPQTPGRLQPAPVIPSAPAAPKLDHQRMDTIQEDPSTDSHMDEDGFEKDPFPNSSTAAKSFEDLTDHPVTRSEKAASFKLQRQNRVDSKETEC

With `CCCC(Cc1ccc(OCCN2CCCCCC2)cc1)(C(=O)NO)S(=O)(=O)c1ccc(OC)cc1` (stereo not drawn) [Example 19, 2-[4-(2-Azepan-1-yl-ethoxy)-benzyl]-2-(4-methoxy-benzenesulfonyl)-pentanoic acid hydroxyamide], the IC50 in experiment [1] was found to be 95.8 nM; in experiment [3] it was 446 nM; in experiment [4] (read-out: MMP 13 IC 50) it was 4.8 nM. Moreover, the inhibition at 1 µM in experiment [2] was found to be 33.1%.

`COc1ccc(S(=O)(=O)C(C)(Cc2cccc(OCCN3CCCCC3)c2)C(=O)NO)cc1` (stereo not drawn) [Example 22, N-Hydroxy-2-(4-methoxy-benzenesulfonyl)-2-methyl-3-[3-(2-piperidin-1-yl-ethoxy)-phenyl]-propionamide]: the IC50 worked out at 3.2 nM in experiment [1], 219 nM in experiment [3] and 2.5 nM in experiment [4] (read-out: MMP 13 IC 50). Also, in experiment [2], the inhibition at 1 µM amounted to 30%.

`COc1ccc(S(=O)(=O)C(C)(Cc2ccc(OCCCN3CCN(c4cccc(Cl)c4)CC3)cc2)C(=O)NO)cc1` (stereo not drawn) [Example 23, 3-(4-{3-[4-(3-Chloro-phenyl)-piperazin-1-yl]-propoxy}-phenyl)-N-hydroxy-2-(4-methoxy-benzenesulfonyl)-2-methyl-propionamide]: the IC50 worked out at 7.9 nM in experiment [1], 593 nM in experiment [3] and 4 nM in experiment [4] (read-out: MMP 13 IC 50). In addition, the inhibition at 1 µM in experiment [2] turned out to be 40.6%.

As to `CCN(CC)CCOc1cccc(CC(C)(C(=O)NO)S(=O)(=O)c2ccc(OC)cc2)c1` (stereo not drawn) [Example 29, N-Hydroxy-2-(4-methoxy-benzenesulfonyl)-2-methyl-3-[3-(2-N,N-diethylamino-ethoxy)-phenyl]-propionamide], the IC50 in experiment [1] turned out to be 4.3 nM; in experiment [3] it was 297 nM; in experiment [4] (read-out: MMP 13 IC 50) it was 3.6 nM. Also, the “TACE % inhibition at 1 micromolar” value in experiment [2] was determined as 41%.

In the case of `COc1ccc(S(=O)(=O)C(C)(Cc2cccc(OCCN3CCOCC3)c2)C(=O)NO)cc1` (stereo not drawn) [Example 30, N-Hydroxy-2-(4-methoxy-benzenesulfonyl)-2-methyl-3-[3-(2-morpholin-1-yl-ethoxy)-phenyl]-propionamide], the IC50 in experiment [1] turned out to be 8.1 nM; in experiment [3], 397 nM; in experiment [4] (read-out: MMP 13 IC 50) it was 5.7 nM. The inhibition at 1 µM in experiment [2] is 25.2%.

For the compound `COc1ccc(S(=O)(=O)C(C)(CCCCN2C(=O)c3ccccc3C2=O)C(=O)NO)cc1` (stereo not drawn) [Example 31, 6-(1,3-Dioxo-1,3-dihydro-isoindol-2-yl)-2-(4-methoxy-benzenesulfonyl)-2-methyl - hexanoic acid hydroxyamide], the IC50 worked out at 15.2 nM in experiment [1], 688 nM in experiment [2], 162 nM in experiment [3] and 5.7 nM in experiment [4] (read-out: MMP 13 IC 50).

For `CCC(Cc1ccc(OCCN2CCOCC2)cc1)(C(=O)NO)S(=O)(=O)c1ccc(OC)cc1` (stereo not drawn) [Example 33, N-Hydroxy-2-(4-methoxy-benzenesulfonyl)-2-[4-(2-morpholin-4-yl-ethoxy)-benzyl]-butyramide], the IC50 in experiment [1] stood at 53.9 nM; in experiment [3] it was 318 nM; in experiment [4] (read-out: MMP 13 IC 50) it was 18.4 nM. Further, the inhibition at 1 µM in experiment [2] is 23.9%.

`CCC(Cc1ccc(OCCN2CCCCC2)cc1)(C(=O)NO)S(=O)(=O)c1ccc(OC)cc1` (stereo not drawn) [Example 34, N-Hydroxy-2-(4-methoxy-benzenesulfonyl)-2-[4-(2-piperidin-1-yl-ethoxy)-benzyl]-butyramide]: the figures for the IC50 in experiment [1], in experiment [3] and in experiment [4] (read-out: MMP 13 IC 50) were 34.7 nM, 520 nM and 26.1 nM, respectively. Further, the inhibition at 1 µM in experiment [2] turned out to be 28.1%.

As to `CCCCCCC(Cc1ccc(OCCN2CCCCCC2)cc1)(C(=O)NO)S(=O)(=O)c1ccc(OC)cc1` (stereo not drawn) [Example 36, 2-[4-(2-Azepan-1-yl-ethoxy)-benzyl]-2-(4-Methoxy-benzenesulfonyl)-octanoic acid hydroxyamide], the IC50 in experiment [1] was found to be 83.8 nM; in experiment [2], 826 nM; in experiment [3], 622 nM; in experiment [4] (read-out: MMP 13 IC 50), 20.7 nM.

In the case of `CCCCCCC(Sc1ccc(F)cc1)C(=O)NO` (stereo not drawn) [Example 38, 2-(4-Fluoro-phenylsulfanyl)-octanoic acid hydroxyamide], the inhibition at 1 µM in experiment [1] (1 micromolar) was 1.7%; in experiment [2] it was 55.1%; in experiment [3] (1 micromolar), 48.3%; in experiment [4], 5.8%.

`Cc1occc1S(=O)(=O)C(C)(Cc1ccccc1)C(=O)NO` (stereo not drawn) [Example 43, 2-Methyl-2-(2-methyl-furan-3-sulfonyl)-3-phenyl-propionic acid hydroxamide]: the inhibition at 1 µM in experiment [1] (1 micromolar) was found to be 34.7%; in experiment [2], 46.6%; in experiment [3] (1 micromolar) it was 66.1%; in experiment [4], 55.5%.

`Cc1occc1S(=O)(=O)C(C)(Cc1ccc(OCCN2CCCCC2)cc1)C(=O)NO` (stereo not drawn) [Example 44, 2-Methyl-2-(2-methyl-furan-3-sulfonyl)-3-[4-(2-piperidin-1-yl-ethoxy)-phenyl]-propionic acid hydroxamide]: the inhibition at 1 µM in experiment [1] (1 micromolar) came to 36.9%; in experiment [2], 14.9%; in experiment [3] (1 micromolar), 47.1%; in experiment [4], 39.5%.

Take `CCCCCCCCS(=O)(=O)C(Cc1ccc(OCCN2CCCCC2)cc1)C(=O)NO` (stereo not drawn) [Example 46, 2-(octane-1-sulfonyl)-3-[4-(2-piperidin-yl-ethoxy)-phenyl]propionic acid hydroxamide]: the “MMP 9 % inhibition at 1 micromolar” value in experiment [1] (1 micromolar) came to 79.12%. Moreover, the “TACE % inhibition at 1 micromolar” value in experiment [2] came to 1.4%. Moreover, the “MMP 1 % inhibition at 1 micromolar” value in experiment [3] (1 micromolar) was 78.9%. Also, the “MMP 13 % inhibition at 1 micromolar” value in experiment [4] came out at 84.7%.

With `Cn1ccnc1S(=O)(=O)C(C)(Cc1ccc(-c2ccccc2)cc1)C(=O)NO` (stereo not drawn) [Example 47, 3-Biphenyl-4-yl-2-methyl-2-(1-methyl-1H-imidazole-2-sulfonyl)-propionic acid hydroxyamide], the inhibition at 1 µM was 12.9% in experiment [1] (1 micromolar), 3.3% in experiment [2], 17.1% in experiment [3] (1 micromolar) and 7.12% in experiment [4].

`CC(Cc1ccccc1)(C(=O)NO)S(=O)(=O)c1cccs1` (stereo not drawn) [Example 48, 2-Methyl-3-phenyl-2-(thiophene-2-sulfonyl)-propionic acid hydroxamide]: the inhibition at 1 µM in experiment [1] (1 micromolar) came out at 79.1%; in experiment [2] it was 51.1%; in experiment [3] (1 micromolar), 99.1%. Further, the “MMP 13 % inhibition at 1 micromolar” value in experiment [4] is reported as 85.4%.

Turning to `COc1ccc(S(=O)(=O)C(C)(Cc2ccc(Br)cc2)C(=O)NO)cc1` (stereo not drawn) [Example 51, 3-(4-Bromo-phenyl)-N-hydroxy-2-(4-methoxy-benzenesulfonyl)-2-methyl-propionamide], the IC50 stood at 10.4 nM in experiment [1], 178 nM in experiment [3] and 13.1 nM in experiment [4] (read-out: MMP 13 IC 50). Moreover, in experiment [2], the inhibition at 1 µM was 48.1%.

As for `COc1ccc(S(=O)(=O)C2(C(=O)NO)CCCC2)cc1` [Example 54, 1-(4-Methoxy-benzenesulfonyl)-cyclopentanecarboxylic acid hydroxyamide], the IC50 is 66 nM in experiment [1], 110 nM in experiment [3] and 21 nM in experiment [4] (read-out: MMP 13 IC 50). In addition, the inhibition at 1 µM in experiment [2] came to 55.1%.

On to `COc1ccc(S(=O)(=O)C(C)(Cc2ccccc2Br)C(=O)NO)cc1` (stereo not drawn) [Example 55, 3-(2-Bromo-phenyl)-N-hydroxy-2-(4-methoxy-benzenesulfonyl)-2-methyl-propionamide], for which the IC50 in experiment [1] was found to be 10 nM; in experiment [3] it was 303 nM; in experiment [4] (read-out: MMP 13 IC 50), 7 nM. Further, in experiment [2], the inhibition at 1 µM is 21.7%.

Turning to `COc1ccc(S(=O)(=O)C(C)(CC=Cc2ccccc2)C(=O)NO)cc1` (stereo not drawn) [Example 56, 2-(4-methoxy-benzenesulfonyl)-2-methyl-5-phenyl-pent-4-enoic acid hydroxyamide], the IC50 in experiment [1] turned out to be 16 nM; in experiment [3], 299 nM; in experiment [4] it was 12 nM. The inhibition at 1 µM in experiment [2] was found to be 65%.

Consider `COc1ccc(S(=O)(=O)C(CCCc2ccccc2)(CCCc2ccccc2)C(=O)NO)cc1` [Example 57, 2-(4-methoxy-benzenesulfonyl)-5-phenyl-2-(3-phenyl-propyl)-pentanoic acid hydroxyamide], for which the IC50 turned out to be 332 nM in experiment [1], 258 nM in experiment [3] and 191 nM in experiment [4] (read-out: MMP 13 IC 50). Moreover, the inhibition at 1 µM in experiment [2] was found to be 16.6%.

Take `COc1ccc(S(=O)(=O)C(CC=C(C)C)(Cc2cccnc2)C(=O)NO)cc1` (stereo not drawn) [Example 63, 2-(4-Methoxy-benzenesulfonyl)-5-methyl-2-pyridin-3-ylmethyl-hex-4-enoic acid hydroxyamide]: the IC50 in experiment [1] is 9 nM; in experiment [2], 203 nM; in experiment [3] it was 156 nM; in experiment [4] it was 3 nM.

The inhibition is the relative decrease from the control value, in per cent.
